Measurements reported in ChEMBL document CHEMBL1201862, “PubChem BioAssay data set” (2004).
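Growth conditions: 96-well plates. Treatment: test compound, 48 hours, 5 concentrations. Analysis: linear interpolation between bracketing concentrations; unreached endpoints set to highest concentration. GI50: concentration for 50% inhibition of growth.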 Active and inactive are the calls of the source. No stated cut-off is given here; in the data, active = GI50 up to about 1.1 µM and inactive = higher.

Tests used:
Assay in all cases: inhibition of tumour cell growth, NCI panel, 48 h
BT-549 = system: BT-549
CAKI-1 = system: CAKI-1
CCRF-CEM = system: CCRF-CEM
HCT-116 = system: HCT-116
HCT-15 = system: HCT-15
HL-60 = system: HL-60
HT-29 = system: HT-29
K562 = system: K562
LOX IMVI = system: LOX IMVI
MDA-MB-435 = system: MDA-MB-435
NCI-H23 = system: NCI-H23
OVCAR-5 = system: OVCAR-5
SF-268 = system: SF-268
SF-539 = system: SF-539
SK-MEL-28 = system: SK-MEL-28
SK-MEL-2 = system: SK-MEL-2
SK-OV-3 = system: SK-OV-3
SW-620 = system: SW-620
T47D = system: T47D
UACC-257 = system: UACC-257

SMILES | GI50 (BT-549) | GI50 (CAKI-1) | GI50 (CCRF-CEM) | GI50 (HCT-116) | GI50 (HCT-15) [µM] | GI50 (HL-60) | GI50 (HT-29) | GI50 (K562) | GI50 (LOX IMVI) | GI50 (MDA-MB-435) | GI50 (NCI-H23) | GI50 (OVCAR-5) | GI50 (SF-268) | GI50 (SF-539) | GI50 (SK-MEL-28) | GI50 (SK-MEL-2) | GI50 (SK-OV-3) | GI50 (SW-620) | GI50 (T47D) | GI50 (UACC-257)
O=C(NNS(=O)(=O)c1ccccc1)c1cccnc1 | > 100 µM (inactive) | > 100 µM (inactive) | 59.7 µM (inactive) | > 100 µM (inactive) | > 100 | > 100 µM (inactive) | > 100 µM (inactive) | > 100 µM (inactive) | > 100 µM (inactive) | > 100 µM (inactive) | > 100 µM (inactive) | > 100 µM (inactive) | > 100 µM (inactive) | > 100 µM (inactive) | > 100 µM (inactive) | > 100 µM (inactive) | > 100 µM (inactive) | > 100 µM (inactive) | > 100 µM (inactive) | > 100 µM (inactive)
COC(=O)C1(Cc2ccc3c(c2)CCC3)Cc2cc3c(cc2C1=O)CCC3 (configuration not stated) | 7.96 µM (inactive) | 6.73 µM (inactive) | 17.7 µM (inactive) | 11.4 µM (inactive) | 26.5 | 6.67 µM (inactive) | 20.3 µM (inactive) | 8.93 µM (inactive) | 25.1 µM (inactive) | 13.3 µM (inactive) | 22 µM (inactive) | > 46.5 µM (inactive) | > 46.5 µM (inactive) | > 46.5 µM (inactive) | 37.2 µM (inactive) | 17.1 µM (inactive) | > 46.5 µM (inactive) | 16.9 µM (inactive) | 10.8 µM (inactive) | 16.4 µM (inactive)
COc1ccc(-c2c(C#N)c(O)n(C3OC(CO)C(O)C(O)C3O)c(=S)c2C#N)cc1 (configuration not stated) | > 100 µM (inactive) | > 100 µM (inactive) | > 100 µM (inactive) |  | > 100 | > 100 µM (inactive) | > 100 µM (inactive) | > 100 µM (inactive) | > 100 µM (inactive) | > 100 µM (inactive) | > 100 µM (inactive) | > 100 µM (inactive) | > 100 µM (inactive) | > 100 µM (inactive) | > 100 µM (inactive) | > 100 µM (inactive) | > 100 µM (inactive) | > 100 µM (inactive) | > 100 µM (inactive) | > 100 µM (inactive)
Cc1cccc(C)c1NC(=S)NC=C1C(=O)c2ccccc2C1=O | 4.84 µM (inactive) | 17.8 µM (inactive) | 5.18 µM (inactive) | 4.62 µM (inactive) | 7.35 | 2.45 µM (inactive) | 5.78 µM (inactive) | 3.61 µM (inactive) | 19.1 µM (inactive) | 7.5 µM (inactive) | 16.6 µM (inactive) | 39.7 µM (inactive) | 7.52 µM (inactive) | 11.2 µM (inactive) | 15.3 µM (inactive) | 16 µM (inactive) | 18.4 µM (inactive) | 6.85 µM (inactive) | 6.17 µM (inactive) | 12.4 µM (inactive)
COc1ccc(C(=O)/C=C/c2cccnc2)cc1OC | 6.18 µM (inactive) | 4.44 µM (inactive) | 3.51 µM (inactive) | 4.36 µM (inactive) | 11.4 | 2.36 µM (inactive) | 4.1 µM (inactive) | 13.9 µM (inactive) | 1.58 µM (inactive) | 14.8 µM (inactive) | 10.6 µM (inactive) | 12.1 µM (inactive) | 7.55 µM (inactive) | 2.73 µM (inactive) | 16.2 µM (inactive) | 13.2 µM (inactive) | 15.3 µM (inactive) |  | 8.45 µM (inactive) | 15.6 µM (inactive)
CCN(CC)Cc1ccc(C(=S)Nc2ccc(C)cc2)s1 | 20.3 µM (inactive) | 15 µM (inactive) | 8.83 µM (inactive) | 15.1 µM (inactive) | 16.4 | 9.66 µM (inactive) | 4.08 µM (inactive) | 6.59 µM (inactive) | 16 µM (inactive) | 12.2 µM (inactive) | 8.09 µM (inactive) | 14.8 µM (inactive) | 1.25 µM (inactive) | 20.4 µM (inactive) | 15 µM (inactive) | 15.7 µM (inactive) | 15.6 µM (inactive) | 20.2 µM (inactive) | 15.9 µM (inactive) | 11.4 µM (inactive)
Cc1ccc(NC(=O)/C(=N\NC(N)=O)c2c(O)c3ccccc3[nH]c2=O)cc1 | > 100 µM (inactive) | > 100 µM (inactive) | > 100 µM (inactive) | > 100 µM (inactive) | > 100 | > 100 µM (inactive) | > 100 µM (inactive) | > 100 µM (inactive) | > 100 µM (inactive) | > 100 µM (inactive) | > 100 µM (inactive) | > 100 µM (inactive) | > 100 µM (inactive) | > 100 µM (inactive) | > 100 µM (inactive) | > 100 µM (inactive) | > 100 µM (inactive) | > 100 µM (inactive) | > 100 µM (inactive) | > 100 µM (inactive)
C=C[C@H]1CN2CCc3c([nH]c4c([C@@H]5CCCN5C)c(O)ccc34)[C@@H]2C[C@@H]1C[C@H]1c2[nH]c3ccccc3c2CCN1C | 1.47 µM (inactive) | 1.71 µM (inactive) | 0.00427 µM (active) | 0.366 µM (active) | 1.28 | 0.524 µM (active) | 1.28 µM (inactive) | 0.211 µM (active) | 1.39 µM (inactive) | 1.51 µM (inactive) | 1.82 µM (inactive) | 1.79 µM (inactive) | 1.74 µM (inactive) | 1.64 µM (inactive) | 1.79 µM (inactive) | 1.85 µM (inactive) | 1.7 µM (inactive) | 1.13 µM (inactive) | 1.95 µM (inactive) | 1.91 µM (inactive)
N#CCCCC[N+]12CN3CN(CN(C3)C1)C2 | > 100 µM (inactive) | > 100 µM (inactive) | 64 µM (inactive) | > 100 µM (inactive) | > 100 | > 100 µM (inactive) | > 100 µM (inactive) | > 100 µM (inactive) | 32.1 µM (inactive) | > 100 µM (inactive) | > 100 µM (inactive) | > 100 µM (inactive) | > 100 µM (inactive) | 22.6 µM (inactive) | > 100 µM (inactive) | > 100 µM (inactive) | > 100 µM (inactive) | 64.6 µM (inactive) | > 100 µM (inactive) | > 100 µM (inactive)
Cc1ccc2nc3ccccc3c(C3C4C(=O)N(c5ccc(F)cc5)C(=O)C4ON3C(C(N)=O)c3ccccc3)c2c1 (configuration not stated) | > 100 µM (inactive) | 24.4 µM (inactive) | 38.5 µM (inactive) | 26.4 µM (inactive) | 27.2 | 34.9 µM (inactive) | 26.1 µM (inactive) | 50.6 µM (inactive) | 24.5 µM (inactive) | 26.2 µM (inactive) | 29.9 µM (inactive) | 25.8 µM (inactive) | 47.1 µM (inactive) | 27.6 µM (inactive) | 59 µM (inactive) | 33.3 µM (inactive) | 33.2 µM (inactive) | 37.1 µM (inactive) | 84.1 µM (inactive) | 42.7 µM (inactive)
NC(Cc1ccnnc1)C(=O)O (configuration not stated) | > 100 µM (inactive) | > 100 µM (inactive) | > 100 µM (inactive) | > 100 µM (inactive) | > 100 | > 100 µM (inactive) | > 100 µM (inactive) | > 100 µM (inactive) | > 100 µM (inactive) | > 100 µM (inactive) | > 100 µM (inactive) | > 100 µM (inactive) | > 100 µM (inactive) | > 100 µM (inactive) | > 100 µM (inactive) | > 100 µM (inactive) | > 100 µM (inactive) | > 100 µM (inactive) | > 100 µM (inactive) | > 100 µM (inactive)
CCOc1cc2c(cc1O)CC[C@@H]1[C@@H]2CC[C@]2(C)C(N)CC[C@@H]12 (some centres not stated) | 11.2 µM (inactive) | 4.22 µM (inactive) | 1.73 µM (inactive) | 3.05 µM (inactive) | 3.4 | 1.42 µM (inactive) | 2.44 µM (inactive) | 3.89 µM (inactive) | 4.06 µM (inactive) | 1.63 µM (inactive) | 3.48 µM (inactive) | 5.86 µM (inactive) | 3.57 µM (inactive) | 2.36 µM (inactive) | 9.62 µM (inactive) | 4.32 µM (inactive) | 3.19 µM (inactive) | 3.04 µM (inactive) | 8.53 µM (inactive) | 3.44 µM (inactive)
CC1=NC(=O)C(C)(c2ccccc2)N1CCc1ccccc1 (configuration not stated) | > 100 µM (inactive) | > 100 µM (inactive) | 36.2 µM (inactive) | 28 µM (inactive) | 35.2 | 51.5 µM (inactive) | 26.5 µM (inactive) | 34.8 µM (inactive) | 58.7 µM (inactive) | 75 µM (inactive) | > 100 µM (inactive) | > 100 µM (inactive) | > 100 µM (inactive) | 85.3 µM (inactive) |  | > 100 µM (inactive) | > 100 µM (inactive) | 61.8 µM (inactive) | 22.3 µM (inactive) | 72.9 µM (inactive)
CN(C)C(=O)Oc1ccc(C(=S)Nc2ccccc2)cc1Br | 31.3 µM (inactive) | 63.7 µM (inactive) | 21 µM (inactive) | 34 µM (inactive) | 28.9 | 16.8 µM (inactive) | 21.4 µM (inactive) | 18.7 µM (inactive) | 20.9 µM (inactive) | 19.5 µM (inactive) | 22.9 µM (inactive) | 41.9 µM (inactive) | 6.9 µM (inactive) | 72.3 µM (inactive) | 31.8 µM (inactive) | 21.9 µM (inactive) | > 100 µM (inactive) | 37.4 µM (inactive) | 25 µM (inactive) | 24.7 µM (inactive)
